Experimental data published in patent US10508113B2, “Inhibitors of tyrosine kinase 2 mediated signaling” (AbbVie Inc., priority 2018, dated 2019).

The molecules below were run against T1, Jak1 (Homo sapiens, UniProt P23458) (assay: Jak1 (PSTAT3 TF1) alpha screen assay: inhibition of IL-6 induced phosphorylation of STAT3 in TF1 cells). Details: calculated from tabulated EC50 data (Jak1 / Tyk2).
T1 construct: endogenous in cells; host or cells: TF1 cells
T1 sequence (P23458 whole entry): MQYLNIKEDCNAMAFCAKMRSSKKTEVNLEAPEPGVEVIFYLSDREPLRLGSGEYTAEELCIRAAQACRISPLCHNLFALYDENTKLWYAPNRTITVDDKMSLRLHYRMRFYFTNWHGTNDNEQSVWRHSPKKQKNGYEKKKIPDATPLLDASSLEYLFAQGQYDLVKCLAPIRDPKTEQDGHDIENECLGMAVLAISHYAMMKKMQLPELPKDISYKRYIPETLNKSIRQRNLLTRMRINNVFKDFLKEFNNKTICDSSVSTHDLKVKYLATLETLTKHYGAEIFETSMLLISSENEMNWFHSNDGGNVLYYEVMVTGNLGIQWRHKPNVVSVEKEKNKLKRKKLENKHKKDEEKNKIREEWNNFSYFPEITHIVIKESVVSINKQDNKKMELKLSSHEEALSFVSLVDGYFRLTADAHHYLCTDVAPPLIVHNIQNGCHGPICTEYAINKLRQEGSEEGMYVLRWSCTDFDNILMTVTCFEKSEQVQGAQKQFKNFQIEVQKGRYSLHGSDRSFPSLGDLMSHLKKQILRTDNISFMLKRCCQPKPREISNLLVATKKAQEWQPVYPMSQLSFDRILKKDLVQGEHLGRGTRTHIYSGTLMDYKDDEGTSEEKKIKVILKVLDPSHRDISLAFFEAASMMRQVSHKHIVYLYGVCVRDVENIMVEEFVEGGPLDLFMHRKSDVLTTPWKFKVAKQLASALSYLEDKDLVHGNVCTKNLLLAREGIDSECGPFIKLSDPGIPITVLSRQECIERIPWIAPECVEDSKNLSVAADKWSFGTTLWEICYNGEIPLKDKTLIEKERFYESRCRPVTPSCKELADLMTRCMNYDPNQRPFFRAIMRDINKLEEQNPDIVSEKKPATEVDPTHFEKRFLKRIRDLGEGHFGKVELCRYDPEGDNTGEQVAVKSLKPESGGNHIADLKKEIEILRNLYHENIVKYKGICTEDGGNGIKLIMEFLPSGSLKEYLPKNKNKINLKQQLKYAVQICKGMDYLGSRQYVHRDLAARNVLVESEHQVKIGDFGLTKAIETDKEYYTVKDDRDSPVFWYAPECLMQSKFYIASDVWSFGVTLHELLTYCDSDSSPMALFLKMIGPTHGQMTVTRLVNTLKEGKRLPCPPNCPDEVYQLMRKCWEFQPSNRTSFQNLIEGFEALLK
Type: cell-based
Experimental: 2. JAK1 (PSTAT3 TF1) ALPHA SCREEN ASSAY
IL-6 is known to transduce its signal through IL-6 receptor via Jak1. Activity against Jak1 was therefore measured by determining inhibition of IL-6 induced phosphorylation of STAT3 in TF1 cells.
Cell Type: TF1 Cells; Culture Medium: RPMI 1640 Medium, 2mM L-glutamine, 10% heat- inactivated fetal bovine serum (FBS), 10 mM hydroxyethyl piperazineethanesulfonic acid (HEPES), and 2 ng/mL recombinant human interleukin-6(IL-6); Assay Medium: Dulbecco's Modified Eagle Medium (DMEM) medium with 2 mM L-glutamine, 10 mM HEPES, 100 U/mL penicillin/streptomycin, 1.5 g/L sodium bicarbonate, 4.5 g/L glucose, 1 mM sodium pyruvate, 10% heat-inactivated FBS; Compound Preparation: Compounds are dissolved in 100% dimethyl sulfoxide (DMSO).
Day One—Starve Cells: 4 Flasks for one 384 plate (spin down @1000 rpm for 10 minutes and add RPMI 1640 Medium, 2 mM L-glutamine, 10% FBS, 10 mM HEPES with no IL-6 -incubate overnight).
Day Two—Compound Dilutions:
i. Manual 8-point 1:5 dilution curve: 5 mM top concentration dispensed in row A of a
Corning 96-well polypropylene plate, columns 2-12. DMSO dispensed in position A01 for low and high controls. Compounds were serially diluted 1:5 by adding 10 μL stock to […] DMSO down the plate.
ii. Media dilution of compounds: Serially diluted compounds were further diluted 1:12.5 in assay medium by adding 4 μL compound to 46 μL assay medium in a Corning 96-well polypropylene plate.
384 Alpha Screen Plate Set up: Transfer 2.5 μL/well of compound solution from assay media dilution plate. Replicates were vertical, one column of the 96-well dilution plate goes into one column on the 384-well plate twice. Plated 1×10^5 starved cells/well in 5 μL. Washed cells in 10 mL DMEM medium after spinning down. Brought cell pellet up in assay media. Counted live cells. Multiplied by dilution factor and 10,000 (constant) to get the concentration of viable cells. Multiplied by volume of assay media used to bring up cells to get the total number of live cells. Divided by 20,000,000 cells/mL to get the volume needed. Cells were plated at 5 μL/well in gray Alpha Screen 384-well plate. Spinned the plate to bring the contents to the bottom of the wells at 300 rpm for 60 seconds. Top final compound concentration: 25 μM. Sealed with adhesive and tapped gently. Incubated plate at 37° C. for 30 minutes. c. IL-6 Stimulation (pSTAT3)
Once cells were in incubator, immediately prepared working stock of IL-6 (100 ng/mL final concentration). IL-6 stock=10 μg/mL of IL-6 in phosphate buffered saline with 0.1% bovine serum albumin. Diluted 1:25 by adding 60 μL stock IL-6 to 1440 μL assay media. Added 2.5 μL IL-6 to each well. Spinned plate at 300 rpm briefly; tapped the plate gently before covering with an adhesive seal. Incubated plate at 37° C. for 30 minutes.
Added 2.5 μL of 5X Lysis buffer to each well. Incubated at room temperature on orbital shaker for 10 minutes.
e. Protein (A) Acceptor Beads Preparation:
Phosphorylated Signal Transducer and Activator of Transcription 3 (pSTAT3) was quantified using the PerkinElmer SureFire pSTAT3 (Tyrosine 705) Assay. Calculated total volume needed (wells×[…]×25%). Divided total volume by 5 to get volume of activation buffer. Subtracted volume of activation buffer from total volume and divide by 40 to get volume of acceptor beads (add last). Total volume−acceptor bead volume−activation buffer=volume of reaction buffer. Added 15 μL to each well and covered with foil. Shaked on orbital shaker for 2 hours at 500 rpm.
f. Streptavidin Donor Beads Preparation:
Calculated total volume needed (wells×[…]×25%). Divided total volume by 20 to get volume of donor beads (add last). Subtracted volume of donor beads from total volume to get volume of dilution buffer. Added 6 μL to each well and covered with foil. Shaked on orbital shaker overnight at 500 rpm.
Read plate on a Perkin Elmer Envision. […]
In the case of `CO[C@]1(c2cc(C)cc(-c3cn(C)c4cnc(NC(N)=O)cc34)n2)CCOC1` [Example 1b.3, (S)-1-(3-(6-(3-methoxytetrahydrofuran-3-yl)-4-methylpyridin-2-yl)-1-methyl-1H-pyrrolo[2,3-c]pyridin-5-yl)urea], the “Tyk2 selectivity over Jak1” value was 10-fold. `CC[C@@]1(c2cccc(-c3cn(C)c4cnc(NC(C)=O)cc34)n2)CCOC1` [Example 2.3, (S)-N-(3-(6-(3-ethyltetrahydrofuran-3-yl)pyridin-2-yl)-1-methyl-1H-pyrrolo[2,3-c]pyridin-5-yl)acetamide] was tested, and the “Tyk2 selectivity over Jak1” value was 188-fold. `COc1cc(-c2cn(C3COC3)c3cnc(NC(C)=O)cc23)nc([C@]2(OC)CCOC2)c1` [Example 5, (R)-N-(3-(4-methoxy-6-(3-methoxytetrahydrofuran-3-yl)pyridin-2-yl)-1-(oxetan-3-yl)-1H-pyrrolo[2,3-c]pyridin-5-yl)acetamide] was tested, and the “Tyk2 selectivity over Jak1” value was >901-fold. With `COc1cc(-c2cn([C@@H]3CCOC3)c3cnc(NC(C)=O)cc23)nc([C@]2(OC)CCOC2)c1` [Example 5.2, N-(3-(4-methoxy-6-((R)-3-methoxytetrahydrofuran-3-yl)pyridin-2-yl)-1-((R)-tetrahydrofuran-3-yl)-1H-pyrrolo[2,3-c]pyridin-5-yl)acetamide] the “Tyk2 selectivity over Jak1” value was >641-fold. `CO[C@]1(c2cc(OCC3COC3)cc(-c3cn(C)c4cnc(NC(C)=O)cc34)n2)CCOC1` [Example 6.2, (S)-N-(3-(6-(3-methoxytetrahydrofuran-3-yl)-4-(oxetan-3-ylmethoxy)pyridin-2-yl)-1-methyl-1H-pyrrolo[2,3-c]pyridin-5-yl)acetamide] was tested, and the “Tyk2 selectivity over Jak1” value was 50-fold. In the case of `CO[C@@]1(c2cc(OC3COC3)cc(-c3cn(C)c4cnc(NC(C)=O)cc34)n2)CCOC1` [Example 8, (R)-N-(3-(6-(3-Methoxytetrahydrofuran-3-yl)-4-(oxetan-3-yloxy)pyridin-2-yl)-1-methyl-1H-pyrrolo[2,3-c]pyridin-5-yl)acetamide], the “Tyk2 selectivity over Jak1” value was 244-fold. `CO[C@@]1(c2cc(C(F)F)cc(-c3cn(C)c4cnc(NC(N)=O)cc34)n2)CCOC1` [Example 12.5, (R)-1-(3-(4-(difluoromethyl)-6-(3-methoxytetrahydrofuran-3-yl)pyridin-2-yl)-1-methyl-1H-pyrrolo[2,3-c]pyridin-5-yl)urea] was tested, and the “Tyk2 selectivity over Jak1” value was 909-fold. With `COc1cc(-c2cn(C)c3cnc(NC(N)=O)cc23)nc([C@@]2(OC)CCOC2)c1` [Example 12.7, (S)-1-(3-(4-methoxy-6-(3-methoxytetrahydrofuran-3-yl)pyridin-2-yl)-1-methyl-1H-pyrrolo[2,3-c]pyridin-5-yl)urea] the “Tyk2 selectivity over Jak1” value was 81-fold. `CO[C@@]1(c2cc(C#N)cc(-c3cn([C@@H]4CC4(F)F)c4cnc(NC(N)=O)cc34)n2)CCOC1` [Example 12a.3, 1-(3-(4-cyano-6-((R)-3-methoxytetrahydrofuran-3-yl)pyridin-2-yl)-1-((R)-2,2-difluorocyclopropyl)-1H-pyrrolo[2,3-c]pyridin-5-yl)urea] was tested, and the “Tyk2 selectivity over Jak1” value was >1515-fold. In the case of `CO[C@@]1(c2cc(C(F)F)cc(-c3cn([C@@H]4CCOC4)c4cnc(NC(N)=O)cc34)n2)CCOC1` [Example 12b.2, 1-(3-(4-(difluoromethyl)-6-((R)-3-methoxytetrahydrofuran-3-yl)pyridin-2-yl)-1-((R)-tetrahydrofuran-3-yl)-1H-pyrrolo[2,3-c]pyridin-5-yl)urea], the “Tyk2 selectivity over Jak1” value was 2667-fold. With `CO[C@@]1(c2cc(C(F)F)cc(-c3cn([C@H]4CCOC4)c4cnc(NC(N)=O)cc34)n2)CCOC1` [Example 12b.3, 1-(3-(4-(difluoromethyl)-6-((R)-3-methoxytetrahydrofuran-3-yl)pyridin-2-yl)-1-((S)-tetrahydrofuran-3-yl)-1H-pyrrolo[2,3-c]pyridin-5-yl)urea] the “Tyk2 selectivity over Jak1” value was 1214-fold. With `CO[C@@]1(c2cc(C(F)F)cc(-c3cn(C4COC4)c4cnc(NC(N)=O)cc34)n2)CCOC1` [Example 12b.4, (R)-1-(3-(4-(difluoromethyl)-6-(3-methoxytetrahydrofuran-3-yl)pyridin-2-yl)-1-(oxetan-3-yl)-1H-pyrrolo[2,3-c]pyridin-5-yl)urea] the “Tyk2 selectivity over Jak1” value was 889-fold. In the case of `Cn1cc(-c2cccc(C3(O)COC3)n2)c2cc(NC(N)=O)ncc21` [Example 14, 1-(3-(6-(3-hydroxyoxetan-3-yl)pyridin-2-yl)-1-methyl-1H-pyrrolo[2,3-c]pyridin-5-yl)urea], the “Tyk2 selectivity over Jak1” value was 20-fold. `NC(=O)Nc1cc2c(-c3cccc(C4(O)COC4)n3)cn([C@@H]3CCOC3)c2cn1` [Example 15, (R)-1-(3-(6-(3-Hydroxyoxetan-3-yl)pyridin-2-yl)-1-(tetrahydrofuran-3-yl)-1H-pyrrolo[2,3-c]pyridin-5-yl)urea] was tested, and the “Tyk2 selectivity over Jak1” value was 80-fold. `CO[C@@]1(c2cc(C)cc(-c3cn([C@H]4C[C@H](C#N)C4)c4cnc(NC(C)=O)cc34)n2)CCOC1` [Example 17.4, N-(1-((trans)-3-cyanocyclobutyl)-3-(6-((R)-3-methoxytetrahydrofuran-3-yl)-4-methylpyridin-2-yl)-1H-pyrrolo[2,3-c]pyridin-5-yl)acetamide] was tested, and the “Tyk2 selectivity over Jak1” value was 157-fold. With `CO[C@@]1(c2cc(C)cc(-c3cn([C@H]4C[C@@H](C#N)C4)c4cnc(NC(C)=O)cc34)n2)CCOC1` [Example 17.5, N-(1-((cis)-3-cyanocyclobutyl)-3-(6-((R)-3-methoxytetrahydrofuran-3-yl)-4-methylpyridin-2-yl)-1H-pyrrolo[2,3-c]pyridin-5-yl)acetamide] the “Tyk2 selectivity over Jak1” value was 6400-fold. `COc1cc(-c2cn(C)c3cnc(NC(C)=O)cc23)nc([C@]2(OC)CCOC2)c1` [Example 20, (R)-N-(3-(4-Methoxy-6-(3-methoxytetrahydrofuran-3-yl)pyridin-2-yl)-1-methyl-1H-pyrrolo[2,3-c]pyridin-5-yl)acetamide] was tested, and the “Tyk2 selectivity over Jak1” value was 328-fold.
